A short description of data set [1]: Measurement of Body Temperature Increase. The format is in vivo. Particulars: Crl/SD rats, oral, 1 mg/mL in 0.5% methylcellulose at 10 mL/kg; rectal temperature 0.5, 1 and 2 hrs after administration; difference from vehicle group average. As to the method:
Selection of rats (Crl/SD rats, 7 weeks, male) for this study is based on rectal body temperature measured during the morning of the day of dosing. In addition, animals selected for this study are acclimated to both the rectal measurement procedure and to being handled and dosed to minimize spontaneous, stress-induced, increases in body temperature. The study is conducted in the animal care laboratories where the room temperature and humidity are kept. The rats are free to move and food and water during the study. Each rat is numbered with color line on the tail, housed in each cage and permittted the normal range of movement. Immediately before each body temperature is measured, they transferred to a single cage at each measurement. To reduce stress which affected the body temperature, the rats are covered with towels at the measurement. The thermistor probe is then carefully inserted into the rectum of each rat and left in place until the value on the digital display had stabilized.
On the day before dosing, rectal body temperatures are measured at 9:00, 10:00, 11:00, 12:30, 13:30, 14:30 and 15:30 to familiarize the animals with the measurement procedure prior to administration of the test or control treatments. The rats are also dosed by oral gavage without vehicle at 12:30 to acclimate and familiarized the animals with the handling and dosing procedure.
On the day of dosing, only rats whose rectal body temperatures are within the range of 37.0° C. to 37.7° C. are selected for this study. Rectal body temperatures are measured at 9:00, 10:00 and 11:00. Rats whose rectal body temperatures are over 37.9° C. at 10:00, and are outside the range of 37.0° C. to 37.7° C. at 11:00 are excluded from the study. The selected rats are divided to several groups based on their rectal body temperatures at 11:00. Rectal body temperatures of the selected rats are measured again at 12:30, and any rats whose rectal body temperature is 38.0° C. or greater are excluded from the study.
Following the group assignment, test compounds or vehicle is administrated to the rats. Each test compound is dissolved in 0.5% methylcellulose and the final concentration of the compound is adjusted to 1 mg/mL. Test compound is orally administrated in a volume 10 mL/kg once. 10 mL/kg of vehicle (0.5% methylcellulose) is administered to the vehicle group. The rectal body temperatures are measured 0.5, 1 and 2 hrs after the administration. The study is conducted in the animal care laboratories where the room temperature and humidity are kept.
Body temperature increase (ΔTb) is calculated from the difference from an average of the vehicle group at each time point. The body temperature increases (ΔTb) of Compounds I-20, I-25, I-26, I-28, I-29, I-33, I-34, I-36, I-37, I-63 and I-64 were less than 0.3° C.

Data set [2] concerns the target T1, Human TRPV1 (Homo sapiens (Human), UniProt Q8NER1). Briefly: pH-Based Assay (Protocol 2), Ca2+ response in TRPV1/CHO cells. The format is cell-based. Particulars: pH 5.0-5.1 (H2SO4). As to the method: The TRPV1/CHO cell line was generated as described below. The following assay was conducted to determine the concentration of sulfuric acid that would give rise to a pH that induces a […] response optimal to test compounds for their effect on TRPV1. […] For one half of a 96-well plate one agonist solution was used, for the other half the other agonist solution. The agonist solutions were obtained by diluting sulfuric acid (H2SO4, 1 M) with measuring buffer. The concentrations for the two agonist solutions were determined as described above in Section 2 of Protocol 2. The sulfuric acid concentrations between the two agonist solutions differed by 0.5 mM. […] The thereby-obtained solutions were further diluted in measuring buffer (1:100) as 10× stock serial dilutions with a DMSO concentration of 1%. 10 μL of a 10× stock was added into each well at step 3.3.(4) of Protocol 2. Thus, the final concentrations of antagonists ranged from 1000-0.977 nM containing 0.1% DMSO (FIG. 3B). […] (3) The cells were washed twice with 150 μL of measuring buffer (mentioned in 2.2.(3) of Protocol 2, no probenecid). The wells were subsequently refilled with 70 μL of measuring buffer. (4) Either 10 μL of measuring buffer or 10 μL of 10× stock serial dilution of test compound (described in 3.2. above) were applied to each well. Usually, only one test compound was tested per 96-well plate. The number of replicates per 96-well plate for a particular antagonist at a particular concentration was 7×2 since two different sulfuric acid concentrations were used per 96-well plate (N=7×2)(FIG. 3). Step (5) was the same as 2.2.(4) above. (6) Fura-2 fluorescent intensity was monitored as described in 2.2.(5) above. […] Steps (7) and (8) were as described in 2.2.(6) and 2.2.(7) above, respectively. […] FIG. 3) were measured one by one using a portable pH meter.

Data set [3] addresses T1, Human TRPV1. Briefly: Capsaicin-Based Assay (Protocol 2), TRPV1/CHO cells. The format is cell-based. Particulars: capsaicin 100 nM final, Fluo-4, read-out: TRPV1 IC50 Potency Capsaicin-Based Assay IC50. As to the method:
The TRPV1/CHO cell line was generated as described below. […] Subsequently, the cells were loaded by incubation in 0.1 mL of wash buffer containing Fluo-4 at 3 μM final concentration. After 1 hour, the cells were washed twice with 0.2 mL wash buffer and resuspended in 0.1 mL wash buffer. The plates were then transferred to a Fluorescence Imaging Plate Reader (Molecular Devices). Fluorescence intensity was monitored for 15 seconds to establish a baseline. […] The final concentration of the compound was adjusted to range from 100 μM to 1.5625 μM. […] Data were collected over the entire time course and analyzed using Excel and the curve-fitting formula GraphPad Prism.

By IC50 is commonly meant the concentration that inhibits the measured activity by half.

T1 sequence (Q8NER1 whole entry): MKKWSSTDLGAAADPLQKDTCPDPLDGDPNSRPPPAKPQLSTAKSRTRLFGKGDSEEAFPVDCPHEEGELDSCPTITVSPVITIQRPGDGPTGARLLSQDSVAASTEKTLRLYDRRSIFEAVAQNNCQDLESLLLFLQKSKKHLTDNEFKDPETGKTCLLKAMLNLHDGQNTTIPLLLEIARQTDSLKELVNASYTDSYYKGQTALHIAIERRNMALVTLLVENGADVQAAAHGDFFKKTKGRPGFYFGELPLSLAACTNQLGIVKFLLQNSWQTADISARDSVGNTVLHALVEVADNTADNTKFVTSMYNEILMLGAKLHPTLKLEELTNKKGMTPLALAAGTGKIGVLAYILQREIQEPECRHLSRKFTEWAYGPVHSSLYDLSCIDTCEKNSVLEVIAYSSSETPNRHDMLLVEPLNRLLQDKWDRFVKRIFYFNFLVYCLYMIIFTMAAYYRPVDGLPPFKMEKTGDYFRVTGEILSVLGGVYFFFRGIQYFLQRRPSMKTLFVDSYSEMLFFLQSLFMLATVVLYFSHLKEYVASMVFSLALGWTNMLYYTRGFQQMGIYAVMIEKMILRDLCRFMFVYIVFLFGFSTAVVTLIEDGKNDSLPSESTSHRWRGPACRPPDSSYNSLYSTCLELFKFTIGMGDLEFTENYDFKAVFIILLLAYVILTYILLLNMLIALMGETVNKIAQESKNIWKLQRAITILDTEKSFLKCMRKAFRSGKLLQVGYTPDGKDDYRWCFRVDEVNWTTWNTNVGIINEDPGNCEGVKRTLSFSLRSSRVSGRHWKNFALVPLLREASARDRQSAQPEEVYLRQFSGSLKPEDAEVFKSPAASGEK

With `O=C(Nc1ccc(C(F)(F)F)c(Cl)c1)N1CC=C(c2ncc(-c3noc(CO)n3)cc2Cl)CC1` [Compound I-25, N-(3-chloro-4-(trifluoromethyl)phenyl)-4-(3-chloro-5-(5-(hydroxymethyl)-1,2,4-oxadiazol-3-yl)pyridin-2-yl)-5,6-dihydropyridine-1(2H)-carboxamide], the “Body temperature increase (ΔTb)” value in data set [1] is “less than 0.3 °C”.
Turning to `O=C(Nc1ccc(C(F)(F)F)cn1)N1CC=C(c2ncc(-c3cc(CO)on3)cc2Cl)CC1` [Compound I-33, 4-(3-chloro-5-(5-(hydroxymethyl)isoxazol-3-yl)pyridin-2-yl)-N-(5-(trifluoromethyl)pyridin-2-yl)-5,6-dihydropyridine-1(2H)-carboxamide], in data set [1], the “Body temperature increase (ΔTb)” value was “less than 0.3 °C”.
For `O=C(Nc1ccc(C(F)(F)F)c(Cl)c1)N1CC=C(c2ncc(-c3nc(CO)no3)cc2Cl)CC1` [Compound I-36, N-(3-chloro-4-(trifluoromethyl)phenyl)-4-(3-chloro-5-(3-(hydroxymethyl)-1,2,4-oxadiazol-5-yl)pyridin-2-yl)-5,6-dihydropyridine-1(2H)-carboxamide], the IC50 on Human TRPV1 [2] (Fura-2, read-out: IC50 value by the pH-Based Assay) is ≤ 0.1 µM. Besides, the “Body temperature increase (ΔTb)” value in data set [1] was “less than 0.3 °C”.
On to `O=C(Nc1nc2ccc(F)cc2s1)N1CC=C(c2ncc(-c3cc(CO)on3)cc2Cl)CC1` [Compound I-34, 4-(3-chloro-5-(5-(hydroxymethyl)isoxazol-3-yl)pyridin-2-yl)-N-(6-fluorobenzo[d]thiazol-2-yl)-5,6-dihydropyridine-1(2H)-carboxamide], for which, at Human TRPV1 [2] (Fura-2, read-out: TRPV1 IC50 Potency pH-Based Assay IC50), the concentration for half-maximal inhibition (IC50) came out at 0.0336 µM. Besides, the “Body temperature increase (ΔTb)” value in data set [1] was “less than 0.3 °C”.
As to `O=C(Nc1ccc(C(F)(F)F)cn1)N1CC=C(c2ncc(-c3nc(CO)no3)cc2Cl)CC1` [Compound I-37, 4-(3-chloro-5-(3-(hydroxymethyl)-1,2,4-oxadiazol-5-yl)pyridin-2-yl)-N-(5-(trifluoromethyl)pyridin-2-yl)-5,6-dihydropyridine-1(2H)-carboxamide], the “Body temperature increase (ΔTb)” value in data set [1] was “less than 0.3 °C”.
Same read-out and setting: with `O=C(Nc1ccc(C(F)(F)F)cn1)N1CC=C(c2ncc(-c3nc(CO)no3)cc2F)CC1` [Compound I-63, 4-(3-fluoro-5-(3-(hydroxymethyl)-1,2,4-oxadiazol-5-yl)pyridin-2-yl)-N-(5-(trifluoromethyl)pyridin-2-yl)-5,6-dihydropyridine-1(2H)-carboxamide] the entry was “less than 0.3 °C”; with `Cc1cc(NC(=O)N2CC=C(c3ncc(-c4nc(CO)no4)cc3F)CC2)ccc1C(F)(F)F` [Compound I-64, 4-(3-fluoro-5-(3-(hydroxymethyl)-1,2,4-oxadiazol-5-yl)pyridin-2-yl)-N-(3-methyl-4-(trifluoromethyl)phenyl)-5,6-dihydropyridine-1(2H)-carboxamide], “less than 0.3 °C”; with `O=C(Nc1ccc(C(F)(F)F)c(Cl)c1)N1CC=C(c2ncc(-c3cc(CO)on3)cc2Cl)CC1` [Compound I-29, N-(3-chloro-4-(trifluoromethyl)phenyl)-4-(3-chloro-5-(5-(hydroxymethyl)isoxazol-3-yl)pyridin-2-yl)-5,6-dihydropyridine-1(2H)-carboxamide], “less than 0.3 °C”.
Regarding `O=C(Nc1ccc(C(F)(F)F)c(Cl)c1)N1CC=C(c2ncc(-c3ocnc3CO)cc2Cl)CC1` [Compound I-28, N-(3-chloro-4-(trifluoromethyl)phenyl)-4-(3-chloro-5-(4-(hydroxymethyl)oxazol-5-yl)pyridin-2-yl)-5,6-dihydropyridine-1(2H)-carboxamide], the “Body temperature increase (ΔTb)” value in data set [1] is “less than 0.3 °C”.
Still for that read-out and setting: the entry for `O=C(Nc1ccc(C(F)(F)F)cn1)N1CC=C(c2ncc(-c3noc(CO)n3)cc2Cl)CC1` [Compound I-26, 4-(3-chloro-5-(5-(hydroxymethyl)-1,2,4-oxadiazol-3-yl)pyridin-2-yl)-N-(5-(trifluoromethyl)pyridin-2-yl)-5,6-dihydropyridine-1(2H)-carboxamide] is “less than 0.3 °C”.
Consider `O=C(Nc1ccc(C(F)(F)F)c(Cl)c1)N1CC=C(c2ncc(-c3nnc([C@H](O)CO)o3)cc2Cl)CC1` [Compound I-20, (R) —N-(3-chloro-4-(trifluoromethyl)phenyl)-4-(3-chloro-5-(5-(1,2-dihydroxyethyl)-1,3,4-oxadiazol-2-yl)pyridin-2-yl)-5,6-dihydropyridine-1(2H)-carboxamide], for which the IC50 on Human TRPV1 [3] is 0.147 µM. Moreover, the “Body temperature increase (ΔTb)” value in data set [1] was “less than 0.3 °C”.

Values taken from patent publication US9156830B2, “Heterocyclic compounds” (SHIONOGI & CO., LTD., priority 2011, dated 2015).
